Measurements: patent US10172823B1, “Method for inhibiting cancer cell growth with a transplatin complex” (KING FAHD UNIVERSITY OF PETROLEUM AND MINERALS, priority 2017, dated 2019)
Entries after “also recorded” stand apart in the source; their conditions may differ.

Tests used:
[1] = tested on: HCT15 (human colon cancer) cell line; assay: In vitro cytotoxic activity, MTT assay, HCT15 cell line; assay type: cell-based; settings: for IC50: MTT assay, HCT15 cells, 24 h incubation with compound, three independent experiments, ± standard deviation, read-out: IC50 Values against HCT15; for activity compared with cisplatin and carboplatin, HCT15: HCT15 cell line, comparison of IC50 values in words
Experimental: (§1) The trans-[Pt(NH3)2(thione)2].2NO3 complexes were evaluated for in vitro cytotoxic activity against A549 (human lung cancer), MCF-7 (human breast cancer) and HTC15 (human colon cancer) cell lines. The cells were seeded at 4×10^3 cells/well in 100 μL DMEM containing 10% FBS in 96-wells tissue culture plate and incubated for 72 h at 37° C., 5% CO2 in air and 90% relative humidity in CO2 incubator. After incubation, 100 μL of each sample solution (50, 25, 12.5 and 6.25 μM), prepared in DMEM, were added to cells and the cultures were incubated for 24 h. The medium of wells was discarded and 100 μL DMEM containing MTT (3-(4,5-Dimethylthiazol-2-yl)-2,5-diphenyltetrazolium Bromide) (5 mg/mL) was added to the wells and incubated in CO2 incubator at 37° C. in dark for 4 h. After incubation, purple colored formazan (artificial chromogenic dye, product of the reduction of water insoluble tetrazolium salts e.g., MMT by dehydrogenases and reductases) in the cells is produced and appeared as dark crystals in the bottom of the wells. The resultant crystals were solublized by adding 100 μL of DMSO in each well. The solution was thoroughly mixed to dissolve the formazan crystals, producing a purple solution. The absorbance of the 96-wells plate was taken at 570 nm with Labsystems Multiskan EX-Enzyme-linked immunosorbent assay (EX-ELISA) reader against a reagent blank. The IC50 values were calculated from three independent experiments by generating an equation of logarithmic trend line of percentage cell viability against concentration of compounds in Microsoft excel.
(§2) The MTT assay was performed in three independent experiments, each in triplicate. The cancer cell lines used are A549 (human lung cancer), MCF-7 (human breast cancer) and HTC15 (human colon cancer) cell lines. Errors are standard deviations determined from at least three independent experiments.

[2] = tested on: A549 (human lung cancer) cell line; assay: In vitro cytotoxic activity, MTT assay, A549 cell line; settings: for IC50: read-out: IC50 Values against A549, MTT assay, A549 cells, 24 h incubation with compound, three independent experiments, ± standard deviation; for in vitro cytotoxicity compared with cisplatin and carboplatin, A549: A549 cell line, comparison of IC50 values in words
Experimental: as §1, §2

[3] = tested on: MCF-7 (human breast cancer) cell line; assay: In vitro cytotoxic activity, MTT assay, MCF-7 cell line; settings: for IC50: read-out: IC50 Values against MCF7, MTT assay, MCF7 cells, 24 h incubation with compound, three independent experiments, ± standard deviation; for cytotoxicity compared with cisplatin and carboplatin, MCF7: MCF7 cell line, comparison of IC50 values in words
Experimental: as §1, with “After incubation, 100 μL of each sample solution (50, 25, 12.5 and 6.25 μM), prepared in DMEM, were added to cells and the cultures were incubated for 24 h.” left out
as §2

| Structure (SMILES) | IC50 [1] [µM] | IC50 [2] [µM] | IC50 [3] [µM] | activity compared with cisplatin and carboplatin, HCT15 [1] | in vitro cytotoxicity compared with cisplatin and carboplatin, A549 [2] | cytotoxicity compared with cisplatin and carboplatin, MCF7 [3] |
| --- | --- | --- | --- | --- | --- | --- |
| N.N.O=C([O-])C1(C(=O)[O-])CCC1.[Pt+2] [Carboplatin, carboplatin, reference compound] | 53 ± 2 | 70 ± 2 | 63 ± 2 |  |  |  |
| N.N.[Cl][Pt][Cl] [Cisplatin, cisplatin, reference compound] | 32 ± 2 | 42 ± 2 | 23 ± 3 |  |  |  |
| N.N.O=[N+]([O-])[O-].O=[N+]([O-])[O-].S=C1NCCN1.S=C1NCCN1.[Pt+2] [Complex 1, trans-[Pt(NH3)2(Imt)2]. 2NO3] | 50 ± 1 | 52 ± 2 | 80 ± 1 | almost the same cytotoxicity as carboplatin | slightly lower than cisplatin but still higher than carboplatin |  |
| CN1CCNC1=S.CN1CCNC1=S.N.N.O=[N+]([O-])[O-].O=[N+]([O-])[O-].[Pt+2] [Complex 2, trans-[Pt(NH3)2(MeImt)2]. 2NO3] | 40 | 40 | 70 ± 2 | comparable to cisplatin | almost two-fold better than that of carboplatin; also recorded: better cytotoxicity against A549 cancer cell line than cisplatin |  |
| CN1CCN(C)C1=S.CN1CCN(C)C1=S.N.N.O=[N+]([O-])[O-].O=[N+]([O-])[O-].[Pt+2] [Complex 3, trans-[Pt(NH3)2(Me2Imt)2]. 2NO3] | 69 ± 2 | 70 ± 1 | 92 ± 2 | less potent even than carboplatin | the same cytotoxicity as carboplatin |  |
| CCN1CCN(CC)C1=S.CCN1CCN(CC)C1=S.N.N.O=[N+]([O-])[O-].O=[N+]([O-])[O-].[Pt+2] [Complex 4, trans-[Pt(NH3)2(Et2Imt)2]. 2NO3] | 63 ± 1 | 75 ± 1 | 89 ± 1 | less potent even than carboplatin |  |  |
| CCCN1CCNC1=S.CCCN1CCNC1=S.N.N.O=[N+]([O-])[O-].O=[N+]([O-])[O-].[Pt+2] [Complex 5, trans-[Pt(NH3)2(PrImt)2]. 2NO3] | 36 | 41 | 45 ± 1 | comparable to cisplatin | almost two-fold better than that of carboplatin; also recorded: better cytotoxicity against A549 cancer cell line than cisplatin | between cisplatin and carboplatin |
| CC(C)N1CCNC1=S.CC(C)N1CCNC1=S.N.N.O=[N+]([O-])[O-].O=[N+]([O-])[O-].[Pt+2] [Complex 6, trans-[Pt(NH3)2(iPrImt)2]. 2NO3] | 79 ± 1 | 66 ± 1 | 86 ± 2 | less potent even than carboplatin | slightly lower than cisplatin but still higher than carboplatin |  |
| CC(C)N1CCN(C(C)C)C1=S.CC(C)N1CCN(C(C)C)C1=S.N.N.O=[N+]([O-])[O-].O=[N+]([O-])[O-].[Pt+2] [Complex 7, trans-[Pt(NH3)2(Pr2Imt)2].2 NO3] | 53 ± 1 | 69 ± 1 | 87 ± 2 | almost the same cytotoxicity as carboplatin | the same cytotoxicity as carboplatin |  |
| CCN1CCCNC1=S.CCN1CCCNC1=S.N.N.O=[N+]([O-])[O-].O=[N+]([O-])[O-].[Pt+2] [Complex 8, trans-[Pt(NH3)2(EtDiaz)2]. 2NO3] | 43 | 48 ± 1 | 60 ± 2 | comparable to cisplatin | slightly lower than cisplatin but still higher than carboplatin | between cisplatin and carboplatin |
| N.N.O=[N+]([O-])[O-].O=[N+]([O-])[O-].S=C1NCCCCN1.S=C1NCCCCN1.[Pt+2] [Complex 9, trans-[Pt(NH3)2(Diap)2]. 2NO3] | 41 | 49 ± 1 | 69 ± 1 | comparable to cisplatin | slightly lower than cisplatin but still higher than carboplatin |  |
